Source: patent US20230416258A1, “BENZ[…], AND PREPARATION METHOD THEREFOR AND USE THEREOF” (CHINA PHARMACEUTICAL UNIVERSITY, priority 2020, published 2023)

System: KM mice
Experiment: Test for drug-induced disappearance of righting reflex in mice
Format: in vivo
Settings: single rapid bolus via tail vein
Method in brief: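 Latency to, and duration of, righting reflex loss were recorded after one fast tail-vein bolus. Animals: randomized female KM mice weighing 18–25 g.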

| Compound | Duration (30 mg/kg) | Latency (30 mg/kg) | Duration (60 mg/kg) | Latency (60 mg/kg) | Duration (100 mg/kg) | Latency (100 mg/kg) |
| --- | --- | --- | --- | --- | --- | --- |
| COC(=O)CC[C@@H]1N=C(c2ccccc2)c2cc(Cl)ccc2-n2c(SCCN3CCOCC3)nnc21 [Compound 105, methyl (S)-3-(8-chloro-1-((2-morpholinoethyl)thio)-6-phenyl-4H-benzo[f][1,2,4]triazolo[4,3-a][1,4]diazepin-4-yl)propionate] | 13.94 min | 0.63 min | 13.17 min | 0.49 min | – | – |
| CCOC(=O)CC[C@@H]1N=C(c2ccccc2Cl)c2cc(Cl)ccc2-n2c(S)nnc21 [Compound 41, ethyl (S)-3-(8-chloro-6-(2-chlorophenyl)-1-mercapto-4H-benzo[f][1,2,4]triazolo[4,3-a][1,4]diazepin-4-yl)propionate] | – | – | 8.59 min | 0.40 min | – | – |
| COC(=O)CC[C@@H]1N=C(c2ccccc2F)c2cc(Br)ccc2-n2c(SCc3ccncc3)nnc21 [Compound 125, methyl (S)-3-(8-bromo-6-(2-fluorophenyl)-1-(2-((pyridin-4-yl)methyl)thio)-4H-benzo[f][1,2,4]triazolo[4,3-a][1,4]diazepin-4-yl)propionate] | 7.81 min | 0.19 min | – | – | – | – |
| COC(=O)CC[C@@H]1N=C(c2ccccc2F)c2cc(Br)ccc2-n2c(SCN3CCOCC3)nnc21 [Compound 70, methyl (S)-3-(8-bromo-6-(2-fluorophenyl)-1-((morpholinomethyl)thio)-4H-benzo[f][1,2,4]triazolo[4,3-a][1,4]diazepin-4-yl)propionate] | 18.61 min | 1.01 min | – | – | – | – |
| C#CCSc1nnc2n1-c1ccc(Br)cc1C(c1ccccc1F)=N[C@H]2CCC(=O)OC [Compound 49, methyl (S)-3-(8-bromo-6-(2-fluorophenyl)-1-(prop-2-yn-1-ylthio)-4H-benzo[f][1,2,4]triazolo[4,3-a][1,4]diazepin-4-yl)propionate] | 9.65 min | 0.73 min | – | – | – | – |
| COC(=O)CC[C@@H]1N=C(c2ccccc2F)c2cc([N+](=O)[O-])ccc2-n2c(SC3CCN(C)CC3)nnc21 [Compound 65, methyl (S)-3-(8-nitro-6-(2-fluorophenyl)-1-((1-methylpiperidin-4-yl)thio)-4H-benzo[f][1,2,4]triazolo[4,3-a][1,4]diazepin-4-yl)propionate] | 17.25 min | 1.74 min | – | – | – | – |
| methyl (S)-3-(8-chloro-6-(2-chlorophenyl)-1-(2-((4-methylpiperidin-2-carbonyl)ethyl)thio)-4H-benzo[f][1,2,4]triazolo[4,3-a][1,4]diazepin-4-yl)propionate [Compound 136] | 17.5 min | 0.36 min | – | – | – | – |
| COC(=O)CC[C@@H]1N=C(c2ccccc2Cl)c2cc(Br)ccc2-n2c(SCCCN(C)C)nnc21 [Compound 88, methyl (S)-3-(8-bromo-6-(2-chlorophenyl)-1-((3-(dimethylamino)propyl)thio)-4H-benzo[f][1,2,4]triazolo[4,3-a][1,4]diazepin-4-yl)propionate] | 15.82 min | 0.53 min | – | – | – | – |
| COC(=O)CC[C@@H]1N=C(c2ccccc2F)c2cc(Br)ccc2-n2c(SC3CCN(C)CC3)nnc21 [Compound 64, methyl (S)-3-(8-bromo-6-(2-fluorophenyl)-1-((1-methylpiperidin-4-yl)thio)-4H-benzo[f][1,2,4]triazolo[4,3-a][1,4]diazepin-4-yl)propionate] | – | – | 14.27 min | 0.99 min | – | – |
| COC(=O)CC[C@@H]1N=C(c2ccccc2F)c2cc([N+](=O)[O-])ccc2-n2c(SCCO)nnc21 [Compound 19, methyl (S)-3-(8-nitro-6-(2-fluorophenyl)-1-((2-hydroxyethyl)thio)-4H-benzo[f][1,2,4]triazolo[4,3-a][1,4]diazepin-4-yl)propionate] | 16.22 min | 0.89 min | – | – | – | – |
| COC(=O)CC[C@@H]1N=C(c2ccccc2)c2cc(Br)ccc2-n2c(SCCCN(C)C)nnc21 [Compound 109, methyl (S)-3-(8-bromo-1-((3-(dimethylamino)propyl)thio)-6-phenyl-4H-benzo[f][1,2,4]triazolo[4,3-a][1,4]diazepin-4-yl)propionate] | – | – | 13.27 min | 0.97 min | – | – |
| CCN(CC)CCSc1nnc2n1-c1ccc([N+](=O)[O-])cc1C(c1ccccc1F)=N[C@H]2CCC(=O)OC [Compound 56, methyl (S)-3-(8-nitro-1-((2-(diethylamino)ethyl)thio)-6-(2-fluorophenyl)-4H-benzo[f][1,2,4]triazolo[4,3-a][1,4]diazepin-4-yl)propionate] | 10.22 min | 0.92 min | – | – | – | – |
| COC(=O)CC[C@@H]1N=C(c2ccccc2Cl)c2cc([N+](=O)[O-])ccc2-n2c(SCCCN(C)C)nnc21 [Compound 89, methyl (S)-3-(8-nitro-6-(2-chlorophenyl)-1-((3-(dimethylamino)propyl)thio)-4H-benzo[f][1,2,4]triazolo[4,3-a][1,4]diazepin-4-yl)propionate] | – | – | 9.88 min | 0.83 min | – | – |
| COC(=O)CC[C@@H]1N=C(c2ccccn2)c2cc(Br)ccc2-n2c(SCC3CC3)nnc21 [Compound 116, methyl (S)-3-(8-bromo-6-(pyridin-2-yl)-1-((cyclopropylmethyl)thio)-4H-benzo[f][1,2,4]triazolo[4,3-a][1,4]diazepin-4-yl)propionate] | 10.89 min | 0.11 min | – | – | – | – |
| COC(=O)CC[C@@H]1N=C(c2ccccc2F)c2cc(Cl)ccc2-n2c(SCCCN3CCN(CCO)CC3)nnc21 [Compound 66, methyl (S)-3-(8-chloro-6-(2-fluorophenyl)-1-((3-(4-(2-hydroxyethyl)piperazin-1-yl)propyl)thio)-4H-benzo[f][1,2,4]triazolo[4,3-a][1,4]diazepin-4-yl)propionate] | – | – | 4.27 min | 0.89 min | – | – |
| COC(=O)CC[C@@H]1N=C(c2ccccc2Cl)c2cc(Br)ccc2-n2c(SCOP(=O)(O)O)nnc21 [Compound 112, methyl (S)-3-(8-bromo-6-(2-chlorophenyl)-1-(((phosphonooxy)methyl)thio)-4H-benzo[f][1,2,4]triazolo[4,3-a][1,4]diazepin-4-yl)propionate] | 19.21 min | 0.78 min | 12.62 min | 0.46 min | – | – |
| COC(=O)CC[C@@H]1N=C(c2ccccn2)c2cc(Br)ccc2-n2c(SC)nnc21 [Compound 114, methyl (S)-3-(8-bromo-6-(pyridin-2-yl)-1-methylthio-4H-benzo[f][1,2,4]triazolo[4,3-a][1,4]diazepin-4-yl)propionate] | 20.32 min | 0.41 min | – | – | – | – |
| COC(=O)CC[C@@H]1N=C(c2ccccc2F)c2cc(Cl)ccc2-n2c(SCN3CCOCC3)nnc21 [Compound 69, methyl (S)-3-(8-chloro-6-(2-fluorophenyl)-1-((morpholinomethyl)thio)-4H-benzo[f][1,2,4]triazolo[4,3-a][1,4]diazepin-4-yl)propionate] | 21.61 min | 0.90 min | – | – | – | – |
| COC(=O)CC[C@@H]1N=C(c2ccccc2Cl)c2cc(Cl)ccc2-n2c1n[nH]c2=S [Tautomer of compound 2, methyl (S)-3-(8-chloro-6-(2-chlorophenyl)-1-thio-2,4-dihydro-1H-benzo[f][1,2,4]triazolo[4,3-a][1,4]diazepin-4-yl)propionate] | 10.35 min | 1.10 min | – | – | – | – |
| C#CCSc1nnc2n1-c1ccc(Br)cc1C(c1ccccc1Cl)=N[C@H]2CCC(=O)OC [Compound 79, methyl (S)-3-(8-bromo-6-(2-chlorophenyl)-1-(prop-2-yn-1-ylthio)-4H-benzo[f][1,2,4]triazolo[4,3-a][1,4]diazepin-4-yl)propionate] | 6.93 min | 0.57 min | – | – | – | – |
| COC(=O)CC[C@@H]1N=C(c2ccccc2Cl)c2cc(Cl)ccc2-n2c(SCCN3CCOCC3)nnc21 [Compound 81, methyl (S)-3-(8-chloro-6-(2-chlorophenyl)-1-((2-morpholinoethyl)thio)-4H-benzo[f][1,2,4]triazolo[4,3-a][1,4]diazepin-4-yl)propionate] | – | – | 6.41 min | 0.21 min | 12.38 min | 0.22 min |
| COC(=O)CC[C@@H]1N=C(c2ccccc2Cl)c2cc([N+](=O)[O-])ccc2-n2c(SCC3CC3)nnc21 [Compound 77, methyl (S)-3-(8-nitro-6-(2-chlorophenyl)-1-((cyclopropylmethyl)thio)-4H-benzo[f][1,2,4]triazolo[4,3-a][1,4]diazepin-4-yl)propionate] | 5.69 min | 0.38 min | – | – | – | – |
| COC(=O)CC[C@@H]1N=C(c2ccccc2F)c2cc([N+](=O)[O-])ccc2-n2c(SCCN)nnc21 [Compound 22, methyl (S)-3-(8-nitro-6-(2-fluorophenyl)-1-((2-aminoethyl)thio)-4H-benzo[f][1,2,4]triazolo[4,3-a][1,4]diazepin-4-yl)propionate] | 6.53 min | 0.58 min | – | – | – | – |
| COC(=O)CC[C@@H]1N=C(c2ccccc2Cl)c2cc(Cl)ccc2-n2c(SCCC(=O)N(C)C)nnc21 [Compound 143, methyl (S)-3-(8-chloro-6-(2-chlorophenyl)-1-(3-((dimethylamino)-3-oxopropyl)thio)-4H-benzo[f][1,2,4]triazolo[4,3-a][1,4]diazepin-4-yl)propionate] | 9.62 min | 0.64 min | – | – | – | – |
| COC(=O)CC[C@@H]1N=C(c2ccccc2)c2ccccc2-n2c1n[nH]c2=S [Tautomer of compound 5, methyl (S)-3-(6-phenyl-1-thio-2,4-dihydro-1H-benzo[f][1,2,4]triazolo[4,3-a][1,4]diazepin-4-yl)propionate] | 7.82 min | 0.73 min | – | – | – | – |
| COC(=O)CC[C@@H]1N=C(c2ccccc2F)c2cc(Br)ccc2-n2c(SCCn3ccnc3)nnc21 [Compound 139, methyl (S)-3-(8-bromo-6-(2-fluorophenyl)-1-(2-((1H-imidazol-1-yl)ethyl)thio)-4H-benzo[f][1,2,4]triazolo[4,3-a][1,4]diazepin-4-yl)propionate] | 19.99 min | 0.38 min | – | – | – | – |
